From patent US20060234997A1, “Tetrahydro-pyridoazepin-8-ones and related compounds for the treatment of schizophrenia” (WARNER-LAMBERT COMPANY LLC, priority 2005, published 2006) come the findings set out here.

The target in this test is T1, Dopamine D2 receptor (hD2L) (Homo sapiens, UniProt P14416).
T1 construct: expressed in transfected cells; host or cells: CHO cells (CHO-hD2L)
Put plainly: Dopamine D2 Receptor Binding Assay ([3H]spiperone, CHO-hD2L membranes). To be noted: [3H]spiperone 0.4 nM, membrane preparation from CHO-hD2L cells. An excerpt: The ability of the novel compounds of this invention to bind to the dopamine D2 receptor can be determined using conventional radioligand receptor binding assays. All receptors can be heterologously expressed in cell lines and binding assays can be conducted in membrane preparations from the cell lines using procedures outlined below. IC50 concentrations can be determined by nonlinear regression of concentration-dependent reduction in specific binding. The Cheng-Prussoff equation can be used to convert the IC50 to Ki concentrations.
[^3H]Spiperone binding to a membrane preparation from CHO-hD2L cells was carried out in 250 μl of 50 mM Tris-HCl buffer containing 100 mM NaCl, 1 mM MgCl2 and 1% DMSO at pH 7.4. Duplicate samples containing (in order of addition) the test compounds, 0.4 nM [^3H]spiperone and approximately 12 μg protein were incubated for 120 minutes at room temperature. Bound radioligand was separated by rapid filtration under reduced pressure through Whatman GF/B glass fiber filters previously treated with 0.3% polyethyleneimine. Radioactivity retained on the filter is determined by liquid scintillation spectrophotometry.

Each structure is given as a SMILES string.

T1 sequence (P14416 whole entry): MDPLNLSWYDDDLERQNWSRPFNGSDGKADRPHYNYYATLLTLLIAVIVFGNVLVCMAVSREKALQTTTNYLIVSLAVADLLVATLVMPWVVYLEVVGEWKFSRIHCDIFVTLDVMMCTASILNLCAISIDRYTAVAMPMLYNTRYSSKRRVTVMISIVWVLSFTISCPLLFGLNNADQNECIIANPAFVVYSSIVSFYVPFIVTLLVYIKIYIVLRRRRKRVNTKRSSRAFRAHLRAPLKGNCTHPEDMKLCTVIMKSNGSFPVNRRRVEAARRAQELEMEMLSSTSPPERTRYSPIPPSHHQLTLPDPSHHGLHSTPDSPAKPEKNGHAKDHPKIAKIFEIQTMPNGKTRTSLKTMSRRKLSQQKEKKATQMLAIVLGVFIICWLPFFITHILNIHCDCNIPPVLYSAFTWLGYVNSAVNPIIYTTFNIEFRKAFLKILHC

`O=C1CCCc2ccc(OCCCCN3CCN(c4cccc5ccccc45)CC3)nc2N1` [Example 2, 2-[4-(4-Naphthalen-1-yl-piperazin-1-yl)-butoxy]-5,6,7,9-tetrahydro-pyrido[2,3-b]azepin-8-one] displayed a Ki of 3.87 nM. The value for `O=C1CCCc2ccc(OCCCCN3CCN(c4cccc(Cl)c4Cl)CC3)nc2N1` [Example 3, 2-{4-[4-(2,3-dichloro-phenyl)-piperaxin-1-yl]-butoxy}-5,6,7,9-tetrahydro-pyrido[2,3-b]azepin-8-one] was 5.48 nM.

Turning to `O=C1CCCc2ccc(OCCCCN3CCN(c4cccc5c4OCCC5)CC3)nc2N1` [Example 4, 2-[4-(4-Chroman-8-yl-piperazin-1-yl)-butoxy]-5,6,7,9-tetrahydro-pyrido[2,3-b]azepin-8-one], the Ki was 2 nM. The value for `O=C1CCCc2ccc(OCCCCN3CCN(c4cccc5c4CCCC5)CC3)nc2N1` [Example 5, 2-{4-[4-(5,6,7,8-Tetrahydro-naphthalen-1-yl)-piperazin-1-yl]-butoxy}-5,6,7,9-tetrahydro-pyrido[2,3-b]azepin-8-one] was 2.45 nM; that for `O=C1CCCc2ccc(OCCCCN3CCN(c4cccc5c4CCC5)CC3)nc2N1` [Example 6, 2-[4-(4-Indan-4-yl-piperazin-1-yl)-butoxy]-5,6,7,9-tetrahydro-pyrido[2,3-b]azepin-8-one] was 1 nM. The value for `O=C1CCCc2ccc(OCCCCN3CCN(c4cccc5c4OCC5)CC3)nc2N1` [Example 7, 2-{4-[4-(2,3-Dihydro-benzofuran-7-yl)-piperazin-1-yl]-butoxy}-5,6,7,9-tetrahydro-pyrido[2,3-b]azepin-8-one] was 3.46 nM; that for `O=C1CCCc2ccc(OCCCCN3CCN(c4cccc5ccc(F)cc45)CC3)nc2N1` [Example 8, 2-{4-[4-(7-Fluoro-naphthalen-1-yl)-piperazin-1-yl]-butoxy}-5,6,7,9-tetrahydro-pyrido[2,3-b]azepin-8-one] was 1 nM; that for `O=C1CCCc2ccc(OCCCCN3CCN(c4cccc5c4OCCCO5)CC3)nc2N1` [Example 9, 2-{4-[4-(3,4-Dihydro-2H-benzo[b][1,4]dioxepin-6-yl)-piperazin-1-yl]-butoxy}-5,6,7,9-tetrahydro-pyrido[2,3-b]azepin-8-one] was 2 nM. The result for `N#Cc1ccc2cccc(N3CCN(CCCCOc4ccc5c(n4)NC(=O)CCC5)CC3)c2c1` [Example 10, 8-{4-[4-(8-Oxo-6,7,8,9-tetrahydro-5H-pyrido[2,3-b]azepin-2-yloxy)-butyl]-piperazin-1-yl}-naphthalene-2-carbonitrile] reads 2.79 nM.

`CN1C(=O)CCc2cccc(N3CCN(CCCCOc4ccc5c(n4)NC(=O)CCC5)CC3)c21` [Example 11, 2-{4-[4-(1-Methyl-2-oxo-1,2,3,4-tetrahydro-quinolin-8-yl)-piperazin-1-yl]-butoxy}-5,6,7,9-tetrahydro-pyrido[2,3-b]azepin-8-one]: the Ki was 18.9 nM. The result for `O=C1NCCc2ccc(OCCCCN3CCN(c4cccc(Cl)c4Cl)CC3)nc2N1` [Example 14, 2-{4-[4-(2,3-Dichloro-phenyl)-piperazin-1-yl]-butoxy}-5,6,7,9-tetrahydro-1,7,9-triaza-benzocyclohepten-8-one] reads 1 nM.

`O=C1NCCc2ccc(OCCCCN3CCN(c4cccc5ccccc45)CC3)nc2N1` [Example 15, 2-[4-(4-Naphthalen-1-yl-piperazin-1-yl)-butoxy]-5,6,7,9-tetrahydro-1,7,9-triaza-benzocyclohepten-8-one] registered a Ki of 1 nM. The value for `O=C1NCCc2ccc(OCCCCN3CCN(c4cccc5c4CCCC5)CC3)nc2N1` [Example 16, 2-{4-[4-(5,6,7,8-Tetrahydro-naphthalen-1-yl)-piperazin-1-yl]-butoxy}-5,6,7,9-tetrahydro-1,7,9-triaza-benzocyclohepten-8-one] was 1.41 nM.

`O=C1NCCc2ccc(OCCCCN3CCN(c4cccc5c4OCCC5)CC3)nc2N1` [Example 17, 2-[4-(4-Chroman-8-yl-piperazin-1-yl)-butoxy]-5,6,7,9-tetrahydro-1,7,9-triaza-benzocyclohepten-8-one] came in with a Ki of 1 nM.

In the case of `COc1ccc2cccc(N3CCN(CCCCOc4ccc5c(n4)NC(=O)NCC5)CC3)c2c1` [Example 21, 2-{4-[4-(7-Methoxy-naphthalen-1-yl)-piperazin-1-yl]-butoxy}-5,6,7,9-tetrahydro-1,7,9-triaza-benzocyclohepten-8-one], affinity was put at a Ki of 0.4 nM. The result for `N#Cc1ccc2cccc(N3CCN(CCCCOc4ccc5c(n4)NC(=O)NCC5)CC3)c2c1` [Example 22, 8-{4-[4-(8-Oxo-6,7,8,9-tetrahydro-5H-1,7,9-triaza-benzocyclohepten-2-yloxy)-butyl]-piperazin-1-yl}-naphthalene-2-carbonitrile] reads 0.4 nM.

`CN1C(=O)CCc2cccc(N3CCN(CCCCOc4ccc5c(n4)NC(=O)NCC5)CC3)c21` [Example 23, 2-{4-[4-(1-Methyl-2-oxo-1,2,3,4-tetrahydro-quinolin-8-yl)-piperazin-1-yl]-butoxy}-5,6,7,9-tetrahydro-1,7,9-triaza-benzocyclohepten-8-one] returned a Ki of 3 nM. The value for `Cc1c(F)ccc(N2CCN(CCCCOc3ccc4c(c3)NC(=O)NCC4)CC2)c1Cl` [Example 30, 8-{4-[4-(2-Chloro-4-fluoro-3-methyl-phenyl)-piperazin-1-yl]-butoxy}-1,3,4,5-tetrahydro-benzo[d][1,3]diazepin-2-one] was 2 nM. The value for `Cc1cc(N2CCN(CCCCOc3ccc4c(c3)NC(=O)NCC4)CC2)c(Cl)cc1F` [Example 31, 8-{4-[4-(2-Chloro-4-fluoro-5-methyl-phenyl)-piperazin-1-yl]-butoxy}-1,3,4,5-tetrahydro-benzo[d][1,3]diazepin-2-one] was 6 nM; that for `O=C1NCCc2ccc(OCCCCN3CCN(c4cccc5ccccc45)CC3)cc2N1` [Example 32, 8-[4-(4-Naphthalen-1-yl-piperazin-1-yl)-butoxy]-1,3,4,5-tetrahydro-benzo[d][1,3]diazepin-2-one] was 3.45 nM; that for `CCc1cccc(N2CCN(CCCCOc3ccc4c(c3)NC(=O)NCC4)CC2)n1` [Example 33] was 2.83 nM. The result for `CC(C)c1cccc(N2CCN(CCCCOc3ccc4c(c3)NC(=O)NCC4)CC2)n1` [Example 34, 8-{4-[4-(6-Isopropyl-pyridin-2-yl)-piperazin-1-yl]-butoxy}-1,3,4,5-tetrahydro-benzo[d][1,3]diazepin-2-one] reads 2.68 nM; that for `O=C1NCCc2ccc(OCCCCN3CCN(c4ccc(F)cc4Cl)CC3)cc2N1` [Example 35, 8-{4-[4-(2-Chloro-4-fluoro-phenyl)-piperazin-1-yl]-butoxy}-1,3,4,5-tetrahydro-benzo[d][1,3]diazepin-2-one], 3 nM; that for `O=C1NCCc2ccc(OCCCCN3CCN(c4ccc(F)c(Cl)c4Cl)CC3)cc2N1` [Example 36, 8-{4-[4-(2,3-Dichloro-4-fluoro-phenyl)-piperazin-1-yl]-butoxy}-1,3,4,5-tetrahydro-benzo[d][1,3]diazepin-2-one], 3 nM. Compound `O=C1NCCc2ccc(OCCCCN3CCN(c4cccc5ccc(F)cc45)CC3)cc2N1` [Example 38, 8-{4-[4-(7-Fluoro-naphthalen-1-yl)-piperazin-1-yl]-butoxy}-1,3,4,5-tetrahydro-benzo[d][1,3]diazepin-2-one] showed a Ki of 2.22 nM.
